Results: the METLIN SMRT retention time set (Domingo-Almenara et al. 2019)

Test: gradient 5% acetonitrile 3 min, to 50% in 2 min, to 85% in 15 min, held 3 min, 100 µL/min
Details: column: Zorbax Extend-C18 2.1 x 50 mm; eluents: water / acetonitrile, 0.1% formic acid
How it was run: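 Using water and acetonitrile that each contained 0.1% formic acid, mixtures of ~100 pure standards were separated at 100 μL/min on a Zorbax Extend-C18 column (2.1 × 50 mm, 1.8 μm). The HPLC fed a quadrupole time-of-flight mass spectrometer working in positive and negative ionization mode, with dead and dwell volumes of 40 μL and 900 μL. Data were acquired over 3 months. Retention time was read from computationally picked adduct peaks after manual inspection of each.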

O=C1NCCCCCCN(C(=O)c2ccco2)[C@H]2C[C@H](C(=O)N3CCc4ccccc4C3)C[C@@H]12
RP-LC retention time: 824 s

O=C(NCc1ccc(Br)cc1)C1CCCN(c2nccnc2Oc2ccccc2)C1 (stereo not given)
RP-LC retention time: 1050 s

O=C(CCC1CCN(S(=O)(=O)c2ccccc2)CC1)NC1CCCCCC1
RP-LC retention time: 958 s

CC(C)NC(=O)c1ccc(OCC2CCN(C(=O)c3ccc(F)cc3Cl)CC2)cc1
RP-LC retention time: 888 s

COC(=O)c1ccc2c(=O)n(Cc3ccc(F)cc3)c(N3CCOCC3)nc2c1
RP-LC retention time: 975 s

Cc1cc(NC2CCCC2)n2nc(-c3ccc(Cl)cc3)c(C)c2n1
RP-LC retention time: 855 s

COc1ccc(-c2cc(N3CCC(NC(=O)c4cc(OC)c(OC)c(OC)c4)C3)n[nH]2)cc1 (stereo not given)
RP-LC retention time: 688 s

COc1ccc(-c2c(C)noc2NC(C)=O)cc1S(=O)(=O)Nc1ccc(Br)cc1F
RP-LC retention time: 817 s

COc1ccc(OCC(=O)Nc2nc(-c3ccccc3)cs2)cc1
RP-LC retention time: 1050 s

Cc1cc(=O)n(Cc2cccc(F)c2)c(N2CCSCC2)n1
RP-LC retention time: 946 s

CCN1C(=O)c2cc(S(=O)(=O)Nc3ccc(F)c(F)c3)ccc2Oc2cccnc21
RP-LC retention time: 1050 s

O=C(NCCOc1ccccc1)c1cccc(Br)c1
RP-LC retention time: 868 s

Cc1c(Cl)cccc1NC(=O)N1CC(n2cnnc2-c2ccccc2)C1
RP-LC retention time: 720 s

CCCNC(=O)N(C1CCOCC1)C1CCN(S(=O)(=O)c2ccc(C)cc2C)CC1
RP-LC retention time: 841 s

CC(C)NC(=O)C1CCCN(c2nc3ncn(CC(=O)Nc4cccc(Cl)c4)c(=O)c3s2)C1 (stereo not given)
RP-LC retention time: 738 s

CCc1cc(=O)n(CC(=O)NC2CCCC2)c(N2CCOCC2)n1
RP-LC retention time: 647 s

Cc1cc(S(=O)(=O)N2CCC(n3cnnc3C3CC3)CC2)ccc1Cl
RP-LC retention time: 784 s

Cc1nc2cc(N3CCC(C(=O)Nc4ccc(Cl)cc4)CC3)cnc2nc1C
RP-LC retention time: 790 s

CCOC(=O)Nc1ccc2c(c1)CN(C(C)=O)CC2
RP-LC retention time: 628 s

N#Cc1cc2c(nc1SCC(=O)N1CCOCC1)CCCC2
RP-LC retention time: 798 s

Cc1nn(Cc2ccc(C(=O)NC3CC3)cc2)c(C)c1S(=O)(=O)N1CCC(C)CC1
RP-LC retention time: 859 s

CCCCNC(=O)Nc1ccccc1CC
RP-LC retention time: 870 s

O=C1COc2ccc(S(=O)(=O)N3CCCC3C(=O)NCc3ccccc3Cl)cc2N1 (stereo not given)
RP-LC retention time: 784 s

COc1ccc(OC)c(NC(=O)N2CCC3(CC2)N=C(c2cccc(F)c2)C(=O)N3)c1
RP-LC retention time: 856 s

Cn1c(=O)n(C)c2cc(S(=O)(=O)c3ccccc3)c(NC(=O)c3ccccc3F)cc21
RP-LC retention time: 878 s

Cc1nn(CC(=O)NCCc2ccco2)c(=O)c2nn(-c3ccccc3)c(C)c12
RP-LC retention time: 758 s

Cc1cccc(-c2nc3nc(C)cc(N4CCCC4)n3n2)c1
RP-LC retention time: 768 s

CN1C(=O)c2cccn2CC1C(=O)Nc1ccc(F)cc1F (stereo not given)
RP-LC retention time: 696 s

CC(C)(C)CCN1CCCC(COc2ccccc2C(=O)N2CCCC2)C1 (stereo not given)
RP-LC retention time: 668 s

CCN(CC)C(=O)CSc1c(C(C)C)cnc2c1c(=O)n(C)c(=O)n2C
RP-LC retention time: 898 s

Cc1noc(C)c1CNC(=O)c1ccc(C#N)cc1
RP-LC retention time: 675 s

CCc1nc(-c2ccc(S(=O)(=O)N3CCC(C(=O)NC4CCCCC4)CC3)cc2)no1
RP-LC retention time: 954 s

Cc1cc(C)cc(NC(=O)CN2C(=O)C(C)(C)c3ccccc32)c1
RP-LC retention time: 968 s

CC(=O)[C@H]1CC[C@H]2[C@@H]3CCC4=CC(=O)C=C[C@]4(C)[C@H]3C(=O)C[C@]12C
RP-LC retention time: 921 s

CCn1ccnc1N1CCN(CC(=O)Nc2cc(Cl)ccc2OC)CC1
RP-LC retention time: 552 s

O=C(NCCC1CCN(C(=O)Nc2ccc(F)cc2F)CC1)C1CCCC1
RP-LC retention time: 777 s

Cc1cc(=O)n(CC(=O)Nc2ccc(F)cc2F)c(N2CCOCC2)n1
RP-LC retention time: 651 s

CCOc1nccnc1NC1CCN(C(=O)c2ccn(CC)n2)CC1
RP-LC retention time: 669 s

CNC(=O)CSc1nnc(N2CCN(C(=O)c3cc(-c4ccccc4)on3)CC2)s1
RP-LC retention time: 674 s

Clc1ccccc1-c1nnc(CN2CCN(c3ccccn3)CC2)o1
RP-LC retention time: 602 s

CCOc1ccn(-c2ccc(F)cc2)c(=O)c1C(=O)Nc1ccc(Oc2ccnc(N)c2Cl)c(F)c1
RP-LC retention time: 700 s

CCCCOc1ccc(-c2nc3ccc(Br)cc3c(C(=O)O)c2C)cc1
RP-LC retention time: 963 s

CCOC(=O)c1cc(S(=O)(=O)N2CCCC2C(=O)Nc2ccc(Br)c(C)c2)cn1C (stereo not given)
RP-LC retention time: 1080 s

O=C1OC2CC1N(C(=O)C1CC=CCC1)C2 (stereo not given)
RP-LC retention time: 622 s

CCCNC(=O)N1CCCN(C)c2ccccc21
RP-LC retention time: 613 s

CCc1nn2c(CNC(=O)c3cccc(F)c3)c(-c3ccccc3)nc2s1
RP-LC retention time: 909 s

CCCCS(=O)(=O)N1CCc2nc(-c3ccccc3)ncc2C1
RP-LC retention time: 970 s

CC(C)NC(=O)c1ccc(-c2nc3cc(NS(=O)(=O)Cc4ccccc4F)ccc3n2C)cc1
RP-LC retention time: 677 s

O=C(Cn1nc2c(N3CCCCCC3)nccn2c1=O)Nc1cccc(C(F)(F)F)c1
RP-LC retention time: 805 s

Cc1ccc(-c2nnc(N3CCC(C(=O)NCCC4=CCCCC4)CC3)o2)cc1
RP-LC retention time: 990 s

CCOC(=O)c1ccc(NC(=O)c2cc(C(C)C)n3nccc3n2)cc1
RP-LC retention time: 1170 s

O=C(Nc1nnc(C2CCCO2)o1)c1ccc([N+](=O)[O-])s1 (stereo not given)
RP-LC retention time: 685 s

Cc1cccc(CNc2cc(-n3cccn3)ncn2)c1
RP-LC retention time: 648 s

CCOc1ccc(NC(=O)N2CCC(n3cnnc3C3CC3)C2)cc1 (stereo not given)
RP-LC retention time: 630 s

Cc1ccc(Cn2nc3ccc(S(=O)(=O)N4CCC(C)CC4)cn3c2=O)cc1
RP-LC retention time: 1060 s

CCN1CCCC1CNC(=O)c1nnc(-c2oc3c(C)cccc3c2C)o1 (stereo not given)
RP-LC retention time: 725 s

CCCN1C(=O)COc2ccc(-c3noc(COc4cccc(C)c4)n3)cc21
RP-LC retention time: 1170 s

O=c1c(Br)c(-c2ccccc2)[nH]c2ccccc12
RP-LC retention time: 715 s

CS(=O)(=O)N(C1CCOCC1)C1CN(C(=O)Nc2ccc(F)cc2F)C1
RP-LC retention time: 664 s

Cc1cc(C)nc(NS(=O)(=O)c2ccc(NC(=O)c3ccc(Cl)s3)cc2)n1
RP-LC retention time: 755 s

COCCNC(=O)c1ccc(-c2ccc(N3CCSCC3)nc2)cc1
RP-LC retention time: 624 s

CCOC(=O)c1nc(NC2CCN(Cc3ccccc3)CC2)c2ccccc2n1
RP-LC retention time: 607 s

Cc1ccc(-c2cc3c4nnc(SCC(=O)NCCc5ccccc5)n4ccn3n2)cc1C
RP-LC retention time: 954 s

CCn1c(=O)c(N2CCCC(C(=O)NCCc3c[nH]c4ccc(OC)cc34)C2)nc2ccccc21 (stereo not given)
RP-LC retention time: 907 s

COc1ccc(OC)c(NC(=O)C2CCCN(c3nnc4ccccn34)C2)c1 (stereo not given)
RP-LC retention time: 667 s

Cc1ccc2oc(C(=O)NCc3ccc4c(c3)OCO4)cc2n1
RP-LC retention time: 635 s

CCOc1ccc(NC(=O)C2CCN(S(=O)(=O)c3cn(C)cn3)CC2)cc1
RP-LC retention time: 699 s

CC1CC(=O)N(CC(=O)Nc2cccc(Cl)c2)c2ccccc2S1 (stereo not given)
RP-LC retention time: 978 s

Cc1noc(-c2cc(S(=O)(=O)N3CCC(C)CC3)c(C)s2)c1C
RP-LC retention time: 1160 s

CC(C)n1c(=O)c(NCc2ccc(OC(F)(F)F)cc2)nc2ccncc21
RP-LC retention time: 733 s

Cc1nn(C)c(C)c1CNC(=O)C1CCN(c2cnn(Cc3ccccc3)c(=O)c2)CC1
RP-LC retention time: 654 s

Cc1cccc2c(=O)n(C3CCN(S(=O)(=O)c4cc(F)cc(F)c4)CC3)cnc12
RP-LC retention time: 1000 s

COc1ccccc1N1CCN(C(=O)C2=CCN(Cc3ccccc3)CC2)CC1
RP-LC retention time: 629 s

CCN(CC)c1ccc(-c2noc(CN3CCN(c4ncccn4)CC3)n2)cn1
RP-LC retention time: 655 s

CCOc1ccc(C2Cn3nnc(-c4nc(-c5ccncc5)no4)c3CO2)cc1 (stereo not given)
RP-LC retention time: 958 s

CCn1c(C(=O)NCCCN2CCCC2=O)c(N2CCCC2=O)c2cc(OC)ccc21
RP-LC retention time: 677 s

Cn1c(C2CCC(CNC(=O)Cn3c(=O)oc4ccccc43)CC2)nc2ccccc21 (stereo not given)
RP-LC retention time: 566 s

COc1ccc(NC(=O)CSc2nccc3c2ccn3Cc2ccc(F)cc2)cc1OC
RP-LC retention time: 788 s

O=C(Nc1ccc(Br)cc1)C1CCCN(c2nccnc2Sc2ccccc2)C1 (stereo not given)
RP-LC retention time: 1220 s

Cc1ccc2sc(N(CCCn3ccnc3)C(=O)c3ccc4c(c3)OCCO4)nc2c1C
RP-LC retention time: 636 s

CCSc1ccccc1C(=O)Nc1nnc(-c2ccsc2)o1
RP-LC retention time: 751 s

O=C(NCc1csc(-c2ccccc2)n1)C1CCN(C(=O)Nc2ccc(F)cc2F)CC1
RP-LC retention time: 784 s

O=C(Cn1ccc2cc(S(=O)(=O)N3CCCCC3)ccc21)N1CCN(c2ccccn2)CC1
RP-LC retention time: 660 s

CC(C)C(=O)NCC12CCC=C1N(C)C(=O)CC2 (stereo not given)
RP-LC retention time: 636 s

Cc1nn(C(=O)C(C)(C)C)c(C)c1S(=O)(=O)N1CCOCC1
RP-LC retention time: 1090 s

CCNC(=O)N(CC(=O)N1CCc2sccc2C1COc1ccccc1)C(C)CC (stereo not given)
RP-LC retention time: 892 s

Cc1ccc2c(c1)C1(CCN(CCc3nc(-c4ccccc4)oc3C)CC1)OC(=O)N2
RP-LC retention time: 747 s

Fc1ccc(OCCc2noc(C3CCCN3)n2)cc1 (stereo not given)
RP-LC retention time: 631 s

Cn1ccc2ccn(CC(=O)NCc3ccc(Cl)cc3)c(=O)c21
RP-LC retention time: 768 s

CCCNC(=O)c1ccc2c(=O)n(Cc3ccc(C)cc3)c(N(CC)CC)nc2c1
RP-LC retention time: 1060 s
